Measurements from US10016469B2, “Composition comprising antifungal agents for treating vulvovaginitis and vaginosis” (Two Lines Co., Ltd., priority 2015, dated 2018).

Legend:
[1] = tested on: G. vaginalis, standard microorganism (ATCC 14018); test: Antibiotic disk diffusion assay; assay type: cell-based, Gardnerella vaginalis; settings: G. vaginalis ATCC 14018, Columbia agar with 5% human red blood cell solution
Method: To screen antibiotics to which Gardnerella vaginalis (G. vaginalis) is sensitive, and are resistant to probiotics, antibiotics were tested using a disk diffusion assay.
(§1) Columbia agar containing a 5% human red blood cell solution was used as a media for Gardnerella vaginalis (G. vaginalis, ATCC 14018) and a MRS agar was used as a media for the strains of the present invention (S. denitnficans YH1 and L. crispatus YH2). As the antibiotic disk, a product manufactured by OXIOD was used.
(§2) As described above, augmentin, metronidazole, and clindamycin were applied to a wild-type Gardnerella vaginalis (G. vaginalis) strain obtained from 33 patients suffering from bacterial vaginosis and a standard microorganism (ATCC 14018) and subjected to a test using a disk diffusion assay.

[2] = tested on: S. denitrificans YH1; test: Antibiotic disk diffusion assay; assay type: cell-based; settings: S. denitrificans YH1, MRS agar
Method: as §1, with “To screen antibiotics to which Gardnerella vaginalis (G. vaginalis) is sensitive, and are resistant to probiotics, antibiotics were tested using a disk diffusion assay. Columbia” for “Columbia”, “([…]1” for “(S. denitnficans YH1”

[3] = tested on: L. crispatus YH2; test: Antibiotic disk diffusion assay; assay type: cell-based, Lactobacillus crispatus; settings: L. crispatus YH2, MRS agar
Method: as §1, with “To screen antibiotics to which Gardnerella vaginalis (G. vaginalis) is sensitive, and are resistant to probiotics, antibiotics were tested using a disk diffusion assay. Columbia” for “Columbia”, “([…]1” for “(S. denitnficans YH1”

[4] = tested on: wild-type Gardnerella vaginalis (G. vaginalis) strain obtained from 33 patients suffering from bacterial vaginosis; test: Antibiotic disk diffusion assay on clinical isolates; assay type: cell-based; settings: for Diameter of inhibition zone per antibiotic, Average ± SD: average over the G. vaginalis strains of Table 11
Excerpt: as §1, §2

[5] = G. vaginalis strain 14-1, biotype 1
[6] = G. vaginalis strain 14-2, biotype 5
[7] = G. vaginalis strain 14-3, biotype 4
[8] = G. vaginalis strain 14-4, biotype 6
[9] = G. vaginalis strain 14-5, biotype 4
[10] = G. vaginalis strain 14-6, biotype 1
[11] = G. vaginalis strain 14-7, biotype 5
[12] = G. vaginalis strain 14-8, biotype 3
[13] = G. vaginalis strain 14-9, biotype 2
[14] = G. vaginalis strain 14-10, biotype 3
[15] = G. vaginalis strain 14-11, biotype 2
[16] = G. vaginalis strain 14-12, biotype 5
[17] = G. vaginalis strain 14-13, biotype 5
[18] = G. vaginalis strain 14-14, biotype 4
[19] = G. vaginalis strain 14-15, biotype 5
[20] = G. vaginalis strain 14-16, biotype 8
[21] = G. vaginalis strain 14-17, biotype 5
[22] = G. vaginalis strain 14-19, biotype 5
[23] = G. vaginalis strain 14-20, biotype 7
[24] = G. vaginalis strain 14-21, biotype 8
[25] = G. vaginalis strain 14-23, biotype 8
[26] = G. vaginalis strain 14-24, biotype 8
[27] = G. vaginalis strain 14-25, biotype 5
[28] = G. vaginalis strain 14-26, biotype 5
[29] = G. vaginalis strain 14-27, biotype 4
[30] = G. vaginalis strain 14-28, biotype 5
[31] = G. vaginalis strain 14-29, biotype 5
[32] = G. vaginalis strain 14-30, biotype 5
[33] = G. vaginalis strain 14-32, biotype 5
[34] = G. vaginalis strain 14-33, biotype 7
[35] = G. vaginalis strain 14-34, biotype 5
[36] = G. vaginalis strain 14-36, biotype 5
[37] = G. vaginalis strain 14-37, biotype 1

CN[C@H](CC(C)C)C(=O)N[C@H]1C(=O)N[C@@H](CC(N)=O)C(=O)N[C@H]2C(=O)N[C@H]3C(=O)N[C@H](C(=O)N[C@H](C(=O)O)c4cc(O)cc(O)c4-c4cc3ccc4O)[C@H](O)c3ccc(c(Cl)c3)Oc3cc2cc(c3O[C@@H]2O[C@H](CO)[C@@H](O)[C@H](O)[C@H]2O[C@H]2C[C@](C)(N)[C@H](O)[C@H](C)O2)Oc2ccc(cc2Cl)[C@H]1O [Vancomycin]
diameter of inhibition zone [1]: 40 mm
diameter of inhibition zone [2]: 35 mm
diameter of inhibition zone [3]: 35 mm

CO/N=C(\C(=O)N[C@@H]1C(=O)N2C(C(=O)O)=C(COC(C)=O)CS[C@H]12)c1csc(N)n1 [Cefotaxime]
diameter of inhibition zone [1]: 10 mm
diameter of inhibition zone [2]: 0 mm
diameter of inhibition zone [3]: 0 mm

CC1(C)S[C@@H]2[C@H](NC(=O)Cc3ccccc3)C(=O)N2[C@H]1C(=O)O [Penicillin G]
diameter of inhibition zone [1]: 10 mm
diameter of inhibition zone [2]: 0 mm
diameter of inhibition zone [3]: 0 mm

Cc1onc(-c2ccccc2)c1C(=O)N[C@@H]1C(=O)N2[C@@H]1SC(C)(C)[C@@H]2C(=O)O [Oxacillin]
diameter of inhibition zone [1]: 0 mm
diameter of inhibition zone [2]: 0 mm
diameter of inhibition zone [3]: 0 mm

CCC[C@@H]1C[C@@H](C(=O)N[C@@H]([C@H]2O[C@H](SC)[C@H](O)[C@@H](O)[C@H]2O)[C@H](C)Cl)N(C)C1 [Clindamycin]
diameter of inhibition zone [1]: 55 mm
Diameter of inhibition zone per antibiotic [4, 5]: 50 mm
Diameter of inhibition zone per antibiotic [4, 6]: 60 mm
Diameter of inhibition zone per antibiotic [4, 7]: 55 mm
Diameter of inhibition zone per antibiotic [4, 8]: 50 mm
Diameter of inhibition zone per antibiotic [4, 9]: 45 mm
Diameter of inhibition zone per antibiotic [4, 10]: 45 mm
Diameter of inhibition zone per antibiotic [4, 11]: 60 mm
Diameter of inhibition zone per antibiotic [4, 12]: 50 mm
Diameter of inhibition zone per antibiotic [4, 13]: 50 mm
Diameter of inhibition zone per antibiotic [4, 14]: 55 mm
Diameter of inhibition zone per antibiotic [4, 15]: 60 mm
Diameter of inhibition zone per antibiotic [4, 16]: 50 mm
Diameter of inhibition zone per antibiotic [4, 17]: 55 mm
Diameter of inhibition zone per antibiotic [4, 18]: 50 mm
Diameter of inhibition zone per antibiotic [4, 19]: 60 mm
Diameter of inhibition zone per antibiotic [4, 20]: 60 mm
Diameter of inhibition zone per antibiotic [4, 21]: 55 mm
Diameter of inhibition zone per antibiotic [4, 22]: 55 mm
Diameter of inhibition zone per antibiotic [4, 23]: 50 mm
Diameter of inhibition zone per antibiotic [4, 24]: 50 mm
Diameter of inhibition zone per antibiotic [4, 25]: 55 mm
Diameter of inhibition zone per antibiotic [4, 26]: 50 mm
Diameter of inhibition zone per antibiotic [4, 27]: 55 mm
Diameter of inhibition zone per antibiotic [4, 28]: 65 mm
Diameter of inhibition zone per antibiotic [4, 29]: 55 mm
Diameter of inhibition zone per antibiotic [4, 30]: 60 mm
Diameter of inhibition zone per antibiotic [4, 31]: 65 mm
Diameter of inhibition zone per antibiotic [4, 32]: 65 mm
Diameter of inhibition zone per antibiotic [4, 33]: 60 mm
Diameter of inhibition zone per antibiotic [4, 34]: 55 mm
Diameter of inhibition zone per antibiotic [4, 35]: 60 mm
Diameter of inhibition zone per antibiotic [4, 36]: 60 mm
Diameter of inhibition zone per antibiotic [4, 37]: 60 mm
Diameter of inhibition zone per antibiotic, Average ± SD [4]: 55.45 ± 5.5 mm
Diameter of inhibition zone per antibiotic, Average ± SD ([4]; listed as clindamycin): 55.45±5.5 mm

C[C@@H](O)[C@H]1C(=O)N2C(C(=O)O)=C(SCCN=CN)C[C@H]12 [Imipenem]
diameter of inhibition zone [1]: 40 mm
diameter of inhibition zone [2]: 30 mm
diameter of inhibition zone [3]: 25 mm

CC1(C)S[C@@H]2[C@H](NC(=O)C(C(=O)O)c3ccccc3)C(=O)N2[C@H]1C(=O)O (stereo partly shown) [Carbenicillin]
diameter of inhibition zone [1]: 40 mm
diameter of inhibition zone [2]: 35 mm
diameter of inhibition zone [3]: 35 mm

Trimethoprim sulfamethoxazole
diameter of inhibition zone [1]: 0 mm
diameter of inhibition zone [2]: 0 mm
diameter of inhibition zone [3]: 0 mm

Gentamicin
diameter of inhibition zone [1]: 0 mm
diameter of inhibition zone [2]: 0 mm
diameter of inhibition zone [3]: 0 mm

CC1(C)S[C@@H]2[C@H](NC(=O)[C@H](N)c3ccccc3)C(=O)N2[C@H]1C(=O)O [Ampicillin]
diameter of inhibition zone [1]: 10 mm
diameter of inhibition zone [2]: 0 mm
diameter of inhibition zone [3]: 0 mm

Augmentin
diameter of inhibition zone [1]: 60 mm
Diameter of inhibition zone per antibiotic [4, 5]: 60 mm
Diameter of inhibition zone per antibiotic [4, 6]: 33 mm
Diameter of inhibition zone per antibiotic [4, 7]: 40 mm
Diameter of inhibition zone per antibiotic [4, 8]: 45 mm
Diameter of inhibition zone per antibiotic [4, 9]: 40 mm
Diameter of inhibition zone per antibiotic [4, 10]: 60 mm
Diameter of inhibition zone per antibiotic [4, 11]: 40 mm
Diameter of inhibition zone per antibiotic [4, 12]: 50 mm
Diameter of inhibition zone per antibiotic [4, 13]: 35 mm
Diameter of inhibition zone per antibiotic [4, 14]: 35 mm
Diameter of inhibition zone per antibiotic [4, 15]: 60 mm
Diameter of inhibition zone per antibiotic [4, 16]: 35 mm
Diameter of inhibition zone per antibiotic [4, 17]: 30 mm
Diameter of inhibition zone per antibiotic [4, 18]: 40 mm
Diameter of inhibition zone per antibiotic [4, 19]: 45 mm
Diameter of inhibition zone per antibiotic [4, 20]: 45 mm
Diameter of inhibition zone per antibiotic [4, 21]: 35 mm
Diameter of inhibition zone per antibiotic [4, 22]: 40 mm
Diameter of inhibition zone per antibiotic [4, 23]: 60 mm
Diameter of inhibition zone per antibiotic [4, 24]: 50 mm
Diameter of inhibition zone per antibiotic [4, 25]: 35 mm
Diameter of inhibition zone per antibiotic [4, 26]: 50 mm
Diameter of inhibition zone per antibiotic [4, 27]: 60 mm
Diameter of inhibition zone per antibiotic [4, 28]: 50 mm
Diameter of inhibition zone per antibiotic [4, 29]: 50 mm
Diameter of inhibition zone per antibiotic [4, 30]: 30 mm
Diameter of inhibition zone per antibiotic [4, 31]: 40 mm
Diameter of inhibition zone per antibiotic [4, 32]: 55 mm
Diameter of inhibition zone per antibiotic [4, 33]: 50 mm
Diameter of inhibition zone per antibiotic [4, 34]: 45 mm
Diameter of inhibition zone per antibiotic [4, 35]: 40 mm
Diameter of inhibition zone per antibiotic [4, 36]: 40 mm
Diameter of inhibition zone per antibiotic [4, 37]: 60 mm
Diameter of inhibition zone per antibiotic, Average ± SD [4]: 44.9±9.5 mm
resistance of the G. vaginalis strains, in words ([4]; strains of Table 11): no strain was resistant

Cc1ncc([N+](=O)[O-])n1CCO [Metronidazole]
diameter of inhibition zone [1]: 0 mm
share of wild-type G. vaginalis strains on which no inhibitory effect was shown ([4]; 21 of 33 wild-type strains, metronidazole 50 μg/disc): 64%
share of Biotype 5 strains completely resistant ([4]; Biotype 5, 14 of 15 strains): 93%
Diameter of inhibition zone per antibiotic [4, 5]: 27 mm
Diameter of inhibition zone per antibiotic [4, 6]: 0 mm
Diameter of inhibition zone per antibiotic [4, 7]: 40 mm
Diameter of inhibition zone per antibiotic [4, 8]: 35 mm
Diameter of inhibition zone per antibiotic [4, 9]: 35 mm
Diameter of inhibition zone per antibiotic [4, 10]: 32 mm
Diameter of inhibition zone per antibiotic [4, 11]: 0 mm
Diameter of inhibition zone per antibiotic [4, 12]: 0 mm
Diameter of inhibition zone per antibiotic [4, 13]: 0 mm
Diameter of inhibition zone per antibiotic [4, 14]: 0 mm
Diameter of inhibition zone per antibiotic [4, 15]: 0 mm
Diameter of inhibition zone per antibiotic [4, 16]: 0 mm
Diameter of inhibition zone per antibiotic [4, 17]: 0 mm
Diameter of inhibition zone per antibiotic [4, 18]: 35 mm
Diameter of inhibition zone per antibiotic [4, 19]: 0 mm
Diameter of inhibition zone per antibiotic [4, 20]: 25 mm
Diameter of inhibition zone per antibiotic [4, 21]: 0 mm
Diameter of inhibition zone per antibiotic [4, 22]: 0 mm
Diameter of inhibition zone per antibiotic [4, 23]: 0 mm
Diameter of inhibition zone per antibiotic [4, 24]: 30 mm
Diameter of inhibition zone per antibiotic [4, 25]: 33 mm
Diameter of inhibition zone per antibiotic [4, 26]: 20 mm
Diameter of inhibition zone per antibiotic [4, 27]: 25 mm
Diameter of inhibition zone per antibiotic [4, 28]: 0 mm
Diameter of inhibition zone per antibiotic [4, 29]: 0 mm
Diameter of inhibition zone per antibiotic [4, 30]: 0 mm
Diameter of inhibition zone per antibiotic [4, 31]: 0 mm
Diameter of inhibition zone per antibiotic [4, 32]: 0 mm
Diameter of inhibition zone per antibiotic [4, 33]: 0 mm
Diameter of inhibition zone per antibiotic [4, 34]: 0 mm
Diameter of inhibition zone per antibiotic [4, 35]: 0 mm
Diameter of inhibition zone per antibiotic [4, 36]: 0 mm
Diameter of inhibition zone per antibiotic [4, 37]: 20 mm
zone of inhibition at 50 µg/disc ([4]; Gardnerella vaginalis, 12 sensitive wild-type strains, metronidazole 50 μg/disc, read-out: inhibition zones for the remaining 12 strains): 20 to 40 mm
